The record followed here is patent EP2123285A1, “Nucleosidic phosphoantigens for use in VGAMMA9DELTA2 T cell-mediated therapy” (INSERM (Institut National de la Santé et de la Recherche …, priority 2008, dated 2009).

Entries after “also recorded” stand apart in the source; their conditions may differ. Read-outs that look alike come from different tables or passages of the source.

Data set [1] concerns polyclonal Vγ9Vδ2 T cell line. Nature of the data set: Degranulation assay for cytolytic function (CD107a), direct stimulation with soluble antigens. In kind it is cell-based, human. The conditions noted are these: for surface expression of CD107a (cytotoxicity machinery): soluble antigen, no enzyme added. The source says: (§1) Brefeldin A was omitted. […] Cells were washed twice in FACS medium and stained for TCR-Vδ2. Data were acquired and analyzed as for proliferation assay. Results are expressed as the mean of triplicate microwell cultures +/-S.E.M.

Another data set deals with T1, apyrase (Solanum tuberosum, UniProt P80595).
T1 sequence (P80595 1-454): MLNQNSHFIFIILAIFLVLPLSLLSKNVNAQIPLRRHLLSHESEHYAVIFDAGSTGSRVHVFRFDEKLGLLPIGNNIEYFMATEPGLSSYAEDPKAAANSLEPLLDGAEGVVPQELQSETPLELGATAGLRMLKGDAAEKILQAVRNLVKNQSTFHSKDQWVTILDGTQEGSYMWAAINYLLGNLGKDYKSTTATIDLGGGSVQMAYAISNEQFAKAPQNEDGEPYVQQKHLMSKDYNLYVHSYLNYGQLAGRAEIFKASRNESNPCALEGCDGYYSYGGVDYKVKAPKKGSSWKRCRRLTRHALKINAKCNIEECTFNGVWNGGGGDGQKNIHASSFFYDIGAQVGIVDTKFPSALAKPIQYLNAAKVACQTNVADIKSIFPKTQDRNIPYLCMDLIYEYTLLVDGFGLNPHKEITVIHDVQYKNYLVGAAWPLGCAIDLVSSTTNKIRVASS
Nature of the data set: HPLC analysis of sensitivity to apyrase. In kind it is in vitro ADME. The conditions noted are these: 100µM, 0.2U/mL apyrase, 1h at 37°C in RPMI. How it is done: Reaction mixes containing nucleosidic compounds were adjusted to 200µL with water and products were separated by HPLC (System Gold, Beckman Coulter) on a PL-SAX anion exchange column (1000Å, 5µm, 50x4.6mm from Polymer Labs Varian, Marseille, France) using water (A) and 1M (NH4)2HPO4, pH 3.5 (B) and the following elution gradient: 0-1 min: 0% B; 1-11 min: 0% to 30% B; 11-13 min: 100% B; 13-19min: 0% B. Eluted nucleotides were detected by monitoring UV absorbance at 260nm. In these conditions, adenosine and AMP are not retained on the column and are detected with the elution front. To evaluate phosphatase sensitivity, ApppI and ATP (100µM final concentration) were incubated for 1h at 37°C in 20µL RPMI in the presence of 0.2U/mL apyrase or 0.02U/mL nucleotide pyrophosphatase before analysis.

Data set [2] concerns the target T2, F1-ATPase purified from bovine heart mitochondria (Bos taurus, UniProt P00829+P19483).
T2 construct: F1-ATPase purified from bovine heart mitochondria; from tissue; host or cells: bovine heart mitochondria
Nature of the data set: F1-ATPase activity, ATP bioluminescence assay. In kind it is biochemical. The conditions noted are these: 1µM ATP, 5min, ApppI added in the reaction mixture. How it is done:
(§2) F1-ATPase complexes were recovered from ammonium sulfate precipitates by centrifugation (17000g, 3min) and dissolved in ATPase assay buffer (10mM HEPES, 150mM NaCl, 5mM KCl, 2mM MgCl2, pH 7.5). ATP and ADP were measured using two different assays. For ATP measurements, a bioluminescence assay was used: 100ng F1-ATPase were incubated at room temperature in 50µL of ATPase assay buffer containing 1µM ATP and the indicated apyrase-treated ApppI concentrations in white 96 wells plates. After 5 minutes, 30µL of reconstituted luciferase from the ATP CLSII Kit (Roche) were added and luminescence was acquired on an Orion luminometer (Berthold Detection Systems). The kinetics of ADP production resulting from ATP hydrolysis was measured using the lactate dehydrogenase/pyruvate kinase assay and was adapted from Gledhill, J.R. et al., Biochem J 386, 591-598, 2005: 2µg F1-ATPase were incubated in 200µL of ATPase assay buffer supplemented with phosphoenol pyruvate (500µM), NADH (250µM), lactate dehydrogenase (LDH, 1U) and pyruvate kinase (PK, 5U), with the indicated ATP concentrations and with or without 100µM apyrase-treated ApppI. OD340nm was measured during 2 minutes (with one measurement every 10 seconds) on a Varioskan Flash spectrophotometer (Thermo Electron Corporation). The initial hydrolysis rate (V0) was calculated from a linear regression of the data. […]

The subject of data set [3] is Vγ9Vδ2 T cells. In words: Single cell analysis of calcium mobilization. It is filed as cell-based, human. The conditions noted are these: ApppI-loaded, F1-coated beads. (In general: Calcium flux is commonly read through the fluorescence of an indicator in the cells.)
Data set [4] concerns polyclonal Vγ9Vδ2 T cell line. Nature of the data set: Degranulation assay (CD107a) with tumor cell lines as presenting or pulsed cells. It is filed as cell-based, human. Conditions: for stimulatory activity of pulsed 721.221 cells: 721.221 cell line; for pulsing of RPMI-8226 cells: 2h, 10µM; for sensitivity of stimulation by pulsed cells to apyrase and pyrophosphatase: Daudi or K562 cells pulsed overnight (pamidronate 50µM, ApppI 20µM), apyrase 0.2U/mL, NPP 0.02U/mL, alone or in combination.

The target of data set [5] is T3, bovine F1-ATPase (in the form of F1Fo complexes) (Bos taurus, UniProt P00829+P19483).
T3 construct: from tissue
In words: Pulsing on F1Fo-coated beads and subsequent T cell activation (CD107a). In kind it is binding. How it is done:
as §1
For immobilization on beads, solubilized F1Fo complexes were diluted to 1/3000 (5µg/mL) in 1 ml of PBS and incubated with 10^7 6µm polystyrene beads (Biovalley, Marne-la-Vallée, France) for 4h at room temperature on a rotating wheel. Beads were then pelleted by centrifugation (2min, 12000g), washed and incubated in 1mL of 1% BSA in PBS overnight, washed once with PBS and kept for several days at 4°C in PBS containing 1% BSA. Beads were used in stimulation assays as cultured cell lines. Control beads were prepared similarly except that F1Fo was replaced by BSA. In some experiments the beads were loaded with phosphoantigens: to this end, after washing a suitable aliquot, beads were incubated with ApppI or IPP (50µM) for 2 hours at 37°C in complete SFM medium, washed extensively, and used for Vγ9Vδ2 T cells stimulation. In phosphatase sensitivity assays (Fig.8) NPP or control medium were added to the beads in microculture wells 30min before pulsing the beads or addition of T cells. The beads were then washed and T cells were added with or without supplementation with the same phosphatases. T cell activation was evaluated as described above.

In data set [6] the test system is Vγ9Vδ2 T cells. Nature of the data set: Intracellular cytokine staining (IFNγ). It is filed as cell-based, human.
In data set [7] the target is nucleotide pyrophosphatase (Crotalus adamanteus, UniProt J3SEZ3).
In data set [8] the target is T2, F1-ATPase purified from bovine heart mitochondria. In words: F1-ATPase activity, kinetics of ADP production (lactate dehydrogenase/pyruvate kinase assay). It is filed as biochemical. Conditions: 100 µM ApppI, low ATP concentrations. How it is done:
as §2

In data set [9] the test system is Vγ9Vδ2 T cells. In words: Proliferation assay: Vγ9Vδ2 T cell expansion from PBL stimulated with phosphoantigen plus IL-2. It is filed as cell-based, human.

For the compound `Nc1ncnc2c1ncn2[C@@H]1O[C@H](COP(=O)(O)OP(=O)(O)O)[C@@H](O)[C@H]1O` [ADP], the “effect on T cell stimulations” value in data set [1] (data not shown) is on record as “no effect”.
Consider `Nc1ncnc2c1ncn2[C@@H]1O[C@H](COP(=O)(O)OP(=O)(O)OP(=O)(O)O)[C@@H](O)[C@H]1O` [ATP, reference compound], for which the “HPLC profile after apyrase treatment” value at apyrase is “completely hydrolyzed”.
Take `C=C(C)CCOP(=O)(O)OP(=O)(O)OP(=O)(O)OC[C@H]1O[C@@H](n2cnc3c(N)ncnc32)[C@H](O)[C@@H]1O` [ApppI, 1-(adenosin-5'-yl) 3-(3-methylbut-3-enyl) triphosphoric diester]: the “increase of the amount of ATP hydrolyzed by the complex” value in data set [2] is “two-fold”. Moreover, the intracellular calcium mobilization entry in the data set with Vγ9Vδ2 T cells [3] (NPP 0.02U/mL added after contact) is “slow but strong and sustained calcium response”; in the data set on Vγ9Vδ2 T cells [3] (no NPP) it was “clear activation in few cells only”. The “stimulatory activity of pulsed 721.221 cells” value in data set [4] was “cannot be significantly pulsed; also recorded: poorly stimulatory”. For the same compound, the entries for the “pulsing of RPMI-8226 cells” value in data set [4] (4°C), in [4] (37°C) and in [4] (37°C after 2h pre-treatment with cytochalasin D (10µM)) were “abrogated”, “sufficient to confer stable stimulatory activity” and “abrogated”, respectively. In addition, in [4], the “sensitivity of stimulation by pulsed cells to apyrase and pyrophosphatase” value was “completely resistant”. In data set [4] (RPMI-8226 cells 1:1 ratio plus soluble antigen), the “stimulation by combination of RPMI-8226 cells and phosphoantigen” value is “synergistic activation”. In addition, the “stimulatory activity retained on pulsed tumor cells after extensive washing” value in [4] (tumor cell lines pulsed overnight, compared to tumor cells not washed) came to 70%. The “stimulatory activity of loaded F1-ATPase-coated beads” value is reported as “no activity is retained” in [5] (ApppI treated with NPP before pulsing on beads); “a strong stimulatory activity can be revealed” in data set [5] (NPP 0.02U/mL added in the T cell stimulation assay); “confers some additional stimulatory activity” in data set [5] (beads incubated with 50µM antigen for 2h, washed, no NPP); “retain an activity identical to that of beads which have not been treated with NPP” in data set [5] (beads treated with NPP after pulsing, then washed). The “effect of ApppI added to IPP on the IPP response” value in the data set with Vγ9Vδ2 T cells [6] (IPP (10µM) plus ApppI at varying concentrations) is listed as “does not compete with IPP”. In the data set on Vγ9Vδ2 T cells [6] (PBL stimulation), the “induction of intracellular IFN-γ production” value is on record as “could induce”. Moreover, the “higher concentration required for a similar cytokine response” value with Vγ9Vδ2 T cells [6] (relative to IPP, intracellular IFNγ) was 50-100 fold. Further, the “hydrolysis by NPP (HPLC)” value in data set [7] is “can be hydrolyzed”. Besides, the “effect of exogenous NPP on stimulatory activity” value in [1] (NPP 0.02U/mL added to the T cell stimulation assay) is recorded as “greatly increased”. In [1] (apyrase 0.2U/mL, antigen 10µM), the “effect of apyrase on stimulatory activity” value is on record as “abrogates completely”. In [1], the “surface expression of CD107a (cytotoxicity machinery)” value is listed as “less bioactive than IPP itself”. Moreover, in data set [8], the “initial rate of ADP production relative to the rate in the absence of ApppI” value is recorded as “approximately twice”. Moreover, the “homogeneity of the culture (Vγ9Vδ2 T cells)” value with Vγ9Vδ2 T cells [9] (5 µM) is reported as roughly 94%. For the same compound, in the data set on Vγ9Vδ2 T cells [9] (PBL stimulation), the induction of proliferation entry is reported as “could induce”. Moreover, the “higher molar concentration required for a similar effect on Vγ9Vδ2 T cell expansion from PBLs” value in the data set on Vγ9Vδ2 T cells [9] (relative to IPP, 1 week after PBL stimulation) is on record as 5-10 fold. Moreover, the “HPLC profile after apyrase treatment” value at apyrase is listed as “did not change its HPLC profile”.
In the case of `C=C(C)CCO[P@@](=O)(O)OP(=O)(O)O` [IPP, isopentenyl pyrophosphate, reference compound], in data set [4], the “stimulatory activity retained on pulsed tumor cells after extensive washing” value is given as “less than 20%”. Moreover, the “surface expression of CD107a (cytotoxicity machinery)” value in [1] is given as “stronger stimulation”.
With `Cc1nc(N=Nc2ccc(S(=O)(=O)O)cc2S(=O)(=O)O)c(COP(=O)(O)O)c(C=O)c1O` [PPADS, pyridoxal phosphate-6-azophenyl-2',4'-disulfonic acid], the “effect on ApppI stimulatory activity” value in data set [1] (PPADS added to ApppI stimulation) is given as “inhibition”. Also, in data set [1] (PPADS added to IPP stimulation), the “effect on IPP stimulatory activity” value is “partially decreases”.
For the compound `CC[C@H](C)C(=O)O[C@H]1C[C@@H](C)C=C2C=C[C@H](C)[C@H](CC[C@@H]3C[C@@H](O)CC(=O)O3)[C@H]21` [lovastatin, reference compound], in data set [4] (K562 cells, lovastatin 20µM, ApppI 20µM, overnight), the “effect on stimulatory activity induced by pulsing with ApppI” value is “does not inhibit”. In addition, in data set [4] (K562 cells, lovastatin 20µM, pamidronate 50µM, overnight), the “effect on stimulatory activity induced by pamidronate” value was “efficiently abrogates”.
As for `NCCC(O)(P(=O)(O)O)P(=O)(O)O` [pamidronate, reference compound], in data set [4], the “stimulatory activity of pulsed 721.221 cells” value is reported as “poorly stimulatory”; the “sensitivity of stimulation by pulsed cells to apyrase and pyrophosphatase” value is on record as “completely resistant”.
